For 11 molecules, Kd results are on record in ChEMBL document CHEMBL3991601, “The target landscape of clinical kinase drugs” (Science, 2017).

As a reminder, the Kd is the equilibrium constant for the complex coming apart.

For assay [1], the target named is Protein-tyrosine kinase 6 (Homo sapiens, UniProt Q13882).
In assay [2] the target is Dual specificity protein kinase CLK2 (Homo sapiens, UniProt P49760).
In assay [3] the target is T1, ADP/ATP translocase 3 (Homo sapiens, UniProt P12236).
T1 sequence (P12236 whole entry): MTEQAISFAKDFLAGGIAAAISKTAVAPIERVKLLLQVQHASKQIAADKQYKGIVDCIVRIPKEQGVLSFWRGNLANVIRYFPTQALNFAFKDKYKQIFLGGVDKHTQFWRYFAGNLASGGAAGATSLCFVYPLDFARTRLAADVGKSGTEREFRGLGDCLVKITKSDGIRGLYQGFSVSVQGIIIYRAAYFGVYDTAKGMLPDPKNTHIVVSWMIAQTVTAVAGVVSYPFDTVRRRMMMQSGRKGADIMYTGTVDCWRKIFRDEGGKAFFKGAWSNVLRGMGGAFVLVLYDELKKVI

Assay [4] concerns the target T2, MAP/microtubule affinity-regulating kinase 4 (Homo sapiens, UniProt Q96L34).
T2 sequence (Q96L34 whole entry): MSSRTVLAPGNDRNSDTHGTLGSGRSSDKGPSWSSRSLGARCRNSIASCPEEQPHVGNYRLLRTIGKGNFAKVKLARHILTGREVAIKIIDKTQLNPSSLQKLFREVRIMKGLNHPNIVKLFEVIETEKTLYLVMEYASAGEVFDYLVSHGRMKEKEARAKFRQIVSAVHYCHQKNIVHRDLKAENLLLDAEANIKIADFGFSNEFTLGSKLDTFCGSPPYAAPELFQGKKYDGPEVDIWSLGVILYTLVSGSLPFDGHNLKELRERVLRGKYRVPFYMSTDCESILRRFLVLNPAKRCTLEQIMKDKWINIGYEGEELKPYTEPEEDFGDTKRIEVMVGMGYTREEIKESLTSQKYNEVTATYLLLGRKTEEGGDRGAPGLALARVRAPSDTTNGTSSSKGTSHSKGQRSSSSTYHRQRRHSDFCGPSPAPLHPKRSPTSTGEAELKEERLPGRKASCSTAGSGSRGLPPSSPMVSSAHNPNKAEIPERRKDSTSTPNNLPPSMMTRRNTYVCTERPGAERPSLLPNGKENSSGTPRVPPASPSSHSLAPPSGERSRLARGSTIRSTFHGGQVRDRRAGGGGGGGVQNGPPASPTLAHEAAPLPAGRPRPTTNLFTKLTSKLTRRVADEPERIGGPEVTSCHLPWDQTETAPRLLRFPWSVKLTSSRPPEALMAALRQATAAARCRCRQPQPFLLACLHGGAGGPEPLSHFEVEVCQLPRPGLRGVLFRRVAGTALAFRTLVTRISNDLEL

Assay [5] has as its target T3, Septin-9 (Homo sapiens, UniProt Q9UHD8).
T3 sequence (Q9UHD8 whole entry): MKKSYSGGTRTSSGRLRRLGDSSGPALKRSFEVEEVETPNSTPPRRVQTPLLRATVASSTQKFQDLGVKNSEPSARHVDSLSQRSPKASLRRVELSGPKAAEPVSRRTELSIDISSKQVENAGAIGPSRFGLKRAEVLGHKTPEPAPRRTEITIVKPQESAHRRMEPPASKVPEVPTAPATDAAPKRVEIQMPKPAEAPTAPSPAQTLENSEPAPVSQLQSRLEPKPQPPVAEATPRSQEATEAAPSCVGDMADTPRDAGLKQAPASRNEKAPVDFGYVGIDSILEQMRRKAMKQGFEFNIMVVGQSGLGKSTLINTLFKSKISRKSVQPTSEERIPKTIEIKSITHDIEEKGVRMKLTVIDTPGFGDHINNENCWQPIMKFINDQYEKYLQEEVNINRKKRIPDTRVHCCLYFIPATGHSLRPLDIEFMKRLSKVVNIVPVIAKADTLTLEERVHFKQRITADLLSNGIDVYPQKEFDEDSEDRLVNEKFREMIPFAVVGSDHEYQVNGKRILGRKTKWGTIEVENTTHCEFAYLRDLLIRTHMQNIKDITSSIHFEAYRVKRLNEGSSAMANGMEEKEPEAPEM

In assay [6] the target is Myosin light chain kinase, smooth muscle (Homo sapiens, UniProt Q15746).
Assay [7] concerns the target TGF-beta receptor type-2 (Homo sapiens, UniProt P37173).
Assay [8] has as its target NADH dehydrogenase [ubiquinone] 1 alpha subcomplex subunit 13 (Homo sapiens, UniProt Q9P0J0).
The target in assay [9] is T4, Serine/threonine-protein kinase ICK (Homo sapiens, UniProt Q9UPZ9).
T4 sequence (Q9UPZ9 whole entry): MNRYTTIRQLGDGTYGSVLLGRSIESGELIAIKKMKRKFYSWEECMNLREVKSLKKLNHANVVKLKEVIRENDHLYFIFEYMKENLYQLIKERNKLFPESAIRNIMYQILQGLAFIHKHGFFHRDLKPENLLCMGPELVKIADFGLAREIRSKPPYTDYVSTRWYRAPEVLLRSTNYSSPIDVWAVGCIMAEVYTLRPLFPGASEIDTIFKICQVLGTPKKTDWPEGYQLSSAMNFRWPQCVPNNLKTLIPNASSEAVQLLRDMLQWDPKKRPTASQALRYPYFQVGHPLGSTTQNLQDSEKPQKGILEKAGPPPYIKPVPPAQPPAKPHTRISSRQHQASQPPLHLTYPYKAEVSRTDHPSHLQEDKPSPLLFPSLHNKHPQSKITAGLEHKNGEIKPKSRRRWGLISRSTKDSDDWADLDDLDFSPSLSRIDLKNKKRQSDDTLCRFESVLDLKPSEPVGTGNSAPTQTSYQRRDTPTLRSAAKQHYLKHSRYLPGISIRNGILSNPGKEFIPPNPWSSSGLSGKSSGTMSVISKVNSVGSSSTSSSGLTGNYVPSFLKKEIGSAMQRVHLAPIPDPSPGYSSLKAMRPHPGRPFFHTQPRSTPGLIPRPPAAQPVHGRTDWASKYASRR

Assay [10] addresses STE20-like serine/threonine-protein kinase (Homo sapiens, UniProt Q9H2G2).

Counter-ions that a name gives are not always drawn. The source made the active and inactive calls. Rule as the data show it, for most assays here: actives have a measured Kd and inactives only a lower limit.
Also: in the data inactive means no Kd found up to 30 µM.

Sequence of Dual specificity protein kinase CLK2 (P49760 whole entry): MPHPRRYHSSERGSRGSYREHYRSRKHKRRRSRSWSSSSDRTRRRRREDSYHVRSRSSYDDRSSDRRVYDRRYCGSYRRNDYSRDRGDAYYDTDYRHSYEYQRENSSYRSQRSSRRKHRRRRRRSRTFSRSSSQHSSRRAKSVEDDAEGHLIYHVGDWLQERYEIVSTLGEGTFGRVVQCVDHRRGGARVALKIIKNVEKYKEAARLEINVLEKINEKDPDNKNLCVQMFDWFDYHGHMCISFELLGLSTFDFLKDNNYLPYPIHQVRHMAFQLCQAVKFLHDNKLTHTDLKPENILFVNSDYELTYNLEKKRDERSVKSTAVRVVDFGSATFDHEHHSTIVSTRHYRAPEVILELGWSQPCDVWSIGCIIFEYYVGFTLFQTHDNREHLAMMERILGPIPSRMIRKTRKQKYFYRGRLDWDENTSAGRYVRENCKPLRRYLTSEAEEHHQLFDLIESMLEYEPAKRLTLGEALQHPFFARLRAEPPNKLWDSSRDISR
Sequence of STE20-like serine/threonine-protein kinase (Q9H2G2 whole entry): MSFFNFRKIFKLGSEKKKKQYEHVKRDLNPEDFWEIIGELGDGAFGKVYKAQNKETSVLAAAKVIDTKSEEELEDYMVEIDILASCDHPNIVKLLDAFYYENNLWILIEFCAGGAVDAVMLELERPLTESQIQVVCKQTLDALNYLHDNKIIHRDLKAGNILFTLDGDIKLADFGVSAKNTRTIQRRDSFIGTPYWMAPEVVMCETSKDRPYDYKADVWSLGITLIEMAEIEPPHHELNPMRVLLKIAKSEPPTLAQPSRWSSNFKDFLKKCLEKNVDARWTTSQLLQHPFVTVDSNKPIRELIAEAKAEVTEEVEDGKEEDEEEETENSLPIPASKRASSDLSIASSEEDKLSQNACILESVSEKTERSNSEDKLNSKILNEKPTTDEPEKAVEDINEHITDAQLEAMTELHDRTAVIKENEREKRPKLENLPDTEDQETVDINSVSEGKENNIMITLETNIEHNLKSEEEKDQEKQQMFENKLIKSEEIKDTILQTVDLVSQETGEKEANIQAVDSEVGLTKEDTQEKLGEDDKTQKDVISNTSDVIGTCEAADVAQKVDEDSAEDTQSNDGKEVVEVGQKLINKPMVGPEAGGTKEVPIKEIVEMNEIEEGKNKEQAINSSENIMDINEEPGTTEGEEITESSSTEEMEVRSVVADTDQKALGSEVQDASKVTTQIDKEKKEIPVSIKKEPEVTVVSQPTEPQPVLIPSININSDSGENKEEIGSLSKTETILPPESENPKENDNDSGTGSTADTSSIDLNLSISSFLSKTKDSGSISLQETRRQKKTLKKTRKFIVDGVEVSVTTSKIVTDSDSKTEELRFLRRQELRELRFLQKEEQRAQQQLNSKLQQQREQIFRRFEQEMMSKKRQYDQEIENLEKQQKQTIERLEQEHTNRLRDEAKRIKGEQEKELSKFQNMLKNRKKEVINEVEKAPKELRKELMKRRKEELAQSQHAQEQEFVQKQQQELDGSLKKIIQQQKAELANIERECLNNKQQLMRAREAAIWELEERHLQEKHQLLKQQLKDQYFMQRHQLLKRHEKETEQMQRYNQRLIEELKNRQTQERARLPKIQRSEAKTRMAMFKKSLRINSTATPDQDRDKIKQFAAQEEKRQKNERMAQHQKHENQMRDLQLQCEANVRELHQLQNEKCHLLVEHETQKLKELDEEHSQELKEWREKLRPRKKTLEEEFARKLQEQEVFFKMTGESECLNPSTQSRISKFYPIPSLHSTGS
Sequence of TGF-beta receptor type-2 (P37173 whole entry): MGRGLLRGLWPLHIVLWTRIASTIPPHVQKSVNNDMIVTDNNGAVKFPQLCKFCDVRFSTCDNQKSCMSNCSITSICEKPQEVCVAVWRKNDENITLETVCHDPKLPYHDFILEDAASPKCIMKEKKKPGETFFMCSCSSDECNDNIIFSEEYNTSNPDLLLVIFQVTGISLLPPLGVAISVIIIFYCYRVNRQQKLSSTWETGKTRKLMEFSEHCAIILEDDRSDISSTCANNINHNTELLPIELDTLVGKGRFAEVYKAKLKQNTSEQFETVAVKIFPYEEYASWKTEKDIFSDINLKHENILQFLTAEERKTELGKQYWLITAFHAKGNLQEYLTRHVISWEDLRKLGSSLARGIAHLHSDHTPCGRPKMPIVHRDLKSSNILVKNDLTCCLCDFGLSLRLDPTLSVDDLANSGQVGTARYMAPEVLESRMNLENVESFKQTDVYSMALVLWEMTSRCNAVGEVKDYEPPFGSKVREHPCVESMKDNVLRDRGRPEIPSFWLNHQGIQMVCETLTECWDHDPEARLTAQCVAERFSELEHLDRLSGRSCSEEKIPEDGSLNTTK
Sequence of NADH dehydrogenase [ubiquinone] 1 alpha subcomplex subunit 13 (Q9P0J0 whole entry, one chain of several): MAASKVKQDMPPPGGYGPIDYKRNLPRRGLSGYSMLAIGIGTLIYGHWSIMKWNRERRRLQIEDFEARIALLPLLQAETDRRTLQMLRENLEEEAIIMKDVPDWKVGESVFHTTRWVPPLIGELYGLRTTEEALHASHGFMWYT
Sequence of Myosin light chain kinase, smooth muscle (Q15746 whole entry): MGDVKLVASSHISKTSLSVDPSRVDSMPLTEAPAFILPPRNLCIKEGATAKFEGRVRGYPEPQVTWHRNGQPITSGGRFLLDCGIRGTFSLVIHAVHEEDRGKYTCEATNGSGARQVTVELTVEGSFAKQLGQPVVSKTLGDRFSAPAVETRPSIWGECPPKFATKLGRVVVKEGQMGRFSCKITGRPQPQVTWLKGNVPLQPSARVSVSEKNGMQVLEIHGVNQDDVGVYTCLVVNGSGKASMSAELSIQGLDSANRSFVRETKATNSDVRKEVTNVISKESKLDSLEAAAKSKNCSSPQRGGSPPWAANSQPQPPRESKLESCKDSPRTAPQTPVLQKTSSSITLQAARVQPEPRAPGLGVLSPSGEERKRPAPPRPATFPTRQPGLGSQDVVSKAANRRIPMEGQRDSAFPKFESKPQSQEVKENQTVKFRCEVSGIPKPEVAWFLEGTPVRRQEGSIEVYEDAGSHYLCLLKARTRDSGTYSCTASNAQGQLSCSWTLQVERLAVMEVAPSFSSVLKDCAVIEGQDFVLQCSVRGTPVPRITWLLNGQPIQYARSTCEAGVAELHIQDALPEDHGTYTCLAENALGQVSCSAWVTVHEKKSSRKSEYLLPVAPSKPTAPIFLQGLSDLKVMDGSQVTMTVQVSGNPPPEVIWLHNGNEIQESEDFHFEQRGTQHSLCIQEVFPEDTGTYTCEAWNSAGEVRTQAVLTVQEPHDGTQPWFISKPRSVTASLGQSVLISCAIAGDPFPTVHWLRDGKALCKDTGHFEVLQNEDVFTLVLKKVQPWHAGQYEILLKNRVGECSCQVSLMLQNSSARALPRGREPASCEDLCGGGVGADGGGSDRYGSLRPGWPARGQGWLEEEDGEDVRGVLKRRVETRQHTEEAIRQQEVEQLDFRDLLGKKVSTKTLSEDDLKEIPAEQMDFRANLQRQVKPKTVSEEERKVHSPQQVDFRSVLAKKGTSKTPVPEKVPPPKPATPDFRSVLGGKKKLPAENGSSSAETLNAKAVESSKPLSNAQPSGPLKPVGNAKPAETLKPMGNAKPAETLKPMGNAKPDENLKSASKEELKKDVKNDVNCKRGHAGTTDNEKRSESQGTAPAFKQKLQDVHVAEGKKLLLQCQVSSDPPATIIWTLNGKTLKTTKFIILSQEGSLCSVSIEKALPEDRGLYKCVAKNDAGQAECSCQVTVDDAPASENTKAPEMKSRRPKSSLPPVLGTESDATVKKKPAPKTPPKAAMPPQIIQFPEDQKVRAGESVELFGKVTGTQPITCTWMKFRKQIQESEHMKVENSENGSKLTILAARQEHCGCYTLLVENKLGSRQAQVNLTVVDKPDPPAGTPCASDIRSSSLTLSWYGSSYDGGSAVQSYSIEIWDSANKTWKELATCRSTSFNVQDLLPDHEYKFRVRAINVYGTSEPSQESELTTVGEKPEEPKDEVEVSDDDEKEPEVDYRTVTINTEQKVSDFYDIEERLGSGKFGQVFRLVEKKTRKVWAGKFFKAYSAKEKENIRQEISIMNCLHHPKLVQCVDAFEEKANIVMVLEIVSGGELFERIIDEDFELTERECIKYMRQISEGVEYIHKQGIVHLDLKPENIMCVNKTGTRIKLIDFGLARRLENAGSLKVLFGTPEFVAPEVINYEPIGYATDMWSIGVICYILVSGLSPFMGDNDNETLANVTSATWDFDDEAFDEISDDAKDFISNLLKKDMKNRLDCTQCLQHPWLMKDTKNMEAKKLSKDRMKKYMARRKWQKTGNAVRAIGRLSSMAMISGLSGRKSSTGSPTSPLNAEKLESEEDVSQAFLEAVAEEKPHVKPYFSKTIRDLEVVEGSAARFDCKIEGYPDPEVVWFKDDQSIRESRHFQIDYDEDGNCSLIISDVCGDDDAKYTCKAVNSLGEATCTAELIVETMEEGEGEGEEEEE
Sequence of Protein-tyrosine kinase 6 (Q13882 whole entry): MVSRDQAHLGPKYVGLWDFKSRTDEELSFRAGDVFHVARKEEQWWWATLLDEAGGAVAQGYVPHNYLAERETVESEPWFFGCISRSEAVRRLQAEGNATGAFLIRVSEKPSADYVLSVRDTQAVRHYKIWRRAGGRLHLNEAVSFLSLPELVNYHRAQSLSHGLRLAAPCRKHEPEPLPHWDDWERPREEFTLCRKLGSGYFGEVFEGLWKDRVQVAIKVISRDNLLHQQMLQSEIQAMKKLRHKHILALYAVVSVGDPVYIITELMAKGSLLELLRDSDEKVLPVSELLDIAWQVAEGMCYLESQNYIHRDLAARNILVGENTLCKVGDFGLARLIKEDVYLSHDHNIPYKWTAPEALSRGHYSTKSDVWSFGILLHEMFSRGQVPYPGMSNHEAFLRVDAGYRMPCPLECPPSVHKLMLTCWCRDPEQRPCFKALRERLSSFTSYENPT

Regarding `COc1cc2ncnc(Oc3cccc(NC(=O)Nc4cc(C(C)(C)C(F)(F)F)on4)c3)c2cc1OC` [CEP-32496], the Kd in assay [1] was > 30 µM (inactive); in assay [2], > 30 µM (inactive); in assay [3], > 30 µM (inactive); in assay [4], > 30 µM (inactive); in assay [5], > 30 µM (inactive); in [6], 2.68 µM (active). Besides, the Kd in assay [7], in assay [8], in assay [9] and in assay [10] was > 30 µM (inactive) each time.

On to `Cc1cc(Nc2ncc(Cl)c(Nc3ccccc3S(=O)(=O)C(C)C)n2)c(OC(C)C)cc1C1CCNCC1` [CERITINIB], for which the Kd in assay [1], in assay [2], in assay [3], in [4], in assay [5] and in assay [6] was > 30 µM (inactive) in each case. Moreover, the Kd in [7], in assay [8], in [9] and in [10] was > 30 µM (inactive) in each case.

Consider `COc1c(OCCCN2CCOCC2)ccc2c1N=C(NC(=O)c1cnc(N)nc1)N1CCN=C21` [COPANLISIB], for which the Kd in [1], in assay [2], in assay [3], in assay [4], in assay [5] and in assay [6] was > 30 µM (inactive) in each case. Further, the Kd in assay [7], in [8], in assay [9] and in assay [10] was > 30 µM (inactive) each time.

With `COCC(=O)NC/C=C/c1ccc2ncnc(Nc3ccc(Oc4ccc(C)nc4)c(C)c3)c2c1` [CP-724714], the Kd in assay [1], in assay [2], in [3], in assay [4], in assay [5] and in assay [6] was > 30 µM (inactive) in each case. Also, the Kd in assay [7], in assay [8], in assay [9] and in assay [10] was > 30 µM (inactive) in each case.

On to `C#Cc1cccc(Nc2ncnc3cc(OC)c(OCCCCCCC(=O)NO)cc23)c1` [CUDC-101], for which the Kd in assay [1], in assay [2], in assay [3], in assay [4], in assay [5] and in assay [6] was > 30 µM (inactive) throughout. Also, the Kd in [7], in [8], in [9] and in [10] was > 30 µM (inactive) each time.

Take `CCS(=O)(=O)N1CCN(c2ccc(Nc3ncc(C(N)=O)c(NC4CC4)n3)cc2)CC1` [Cerdulatinib Hydrochloride]: the Kd in assay [1], in assay [2], in assay [3], in assay [4], in assay [5] and in assay [6] was > 30 µM (inactive) throughout. Moreover, the Kd in [7], in [8], in assay [9] and in assay [10] was > 30 µM (inactive) throughout.

With `CC(C)(C)c1nc(-c2cccc(NS(=O)(=O)c3c(F)cccc3F)c2F)c(-c2ccnc(N)n2)s1` [DABRAFENIB], the Kd in assay [1] is 1.41 µM (active); in [2], > 30 µM (inactive); in assay [3], > 30 µM (inactive); in assay [4] it was > 30 µM (inactive); in [5] it was > 30 µM (inactive); in assay [6] it was > 30 µM (inactive). Moreover, the Kd is 2.53 µM (active) in [7], > 30 µM (inactive) in assay [8], > 30 µM (inactive) in [9] and > 30 µM (inactive) in assay [10].

With `O=C(Nc1nc2cccc(-c3ccc(CN4CCS(=O)(=O)CC4)cc3)n2n1)C1CC1` [FILGOTINIB], the Kd in [1], in assay [2], in assay [3], in assay [4], in assay [5] and in [6] was > 30 µM (inactive) in each case. The Kd in assay [7] is > 30 µM (inactive); in assay [8], > 30 µM (inactive); in [9] it was > 30 µM (inactive); in assay [10] it was 9.27 µM (active).

On to `CCn1cc(-c2ccnc3[nH]c(-c4cccc(CN(C)C)c4)cc23)c(-c2ccc(NC(=O)N(C)C)cc2)n1` [GSK-1070916], for which the Kd is 8.19 µM (active) in assay [1]; > 30 µM (inactive) in assay [2]; > 30 µM (inactive) in [3]; > 30 µM (inactive) in assay [4]; > 30 µM (inactive) in assay [5]; > 30 µM (inactive) in assay [6]. Also, the Kd in assay [7], in assay [8], in assay [9] and in assay [10] was > 30 µM (inactive) in each case.

As to `COc1ccc(S(=O)(=O)N(C(C)=O)c2ccccc2/C=C/c2cc[n+]([O-])cc2)cc1` [HMN-214], the Kd in [1], in assay [2], in assay [3], in assay [4], in assay [5] and in assay [6] was > 30 µM (inactive) each time. Moreover, the Kd in assay [7], in assay [8], in assay [9] and in [10] was > 30 µM (inactive) each time.

For `CNC(=O)c1nn(C)c2c1C(C)(C)Cc1cnc(Nc3ccc(N4CCN(C)CC4)cc3)nc1-2` [MILCICLIB], the Kd in [1], in [2], in assay [3], in assay [4], in assay [5] and in assay [6] was > 30 µM (inactive) throughout. Further, the Kd in assay [7] was > 30 µM (inactive); in assay [8] it was > 30 µM (inactive); in assay [9] it was 0.863 µM (active); in [10] it was > 30 µM (inactive).
